Assay results reported in paper PMC7852560 (Neuropsychopharmacology, 2020).
Where “and” joins values, the source holds several entries; their conditions need not be identical. Equal entries are not always repeated. Where two headings read alike, the source gives them in different places.

Legend:
Dopamine D1 = Dopamine D1 (Homo sapiens, UniProt P21728); assay: SafetyScreen44 panel: Dopamine D1; type: binding; conditions: 1 µM
Method: The screen assesses the selectivity of the compound on a diverse panel of targets that includes GPCRs, drug transporters, ion channels, nuclear receptors, kinases, and other non-kinase enzymes. The screen employs radioligand binding or enzyme assays for these 44 targets.
For receptor assays, binding was calculated as percent inhibition of the binding of a radioactively labeled ligand specific for each target. For enzyme assays, the inhibition effect was calculated as percent inhibition of control enzyme activity. Tests were performed in duplicate, and results are averages of those two tests. See https://www.eurofinsdiscoveryservices.com.

in vivo = assay: in vivo; parameters: species or system male C57Bl/6 mice
Method: Microsomal stability assays were conducted by Cyprotex Ltd (Macclesfield, UK).
Blood samples (approximately 60 µL; n=3 mice per time-point) were taken at 0.08, 0.25, 0.5, 1, 2, 4, 6 and 8 hrs. Immediately after collection of blood, brain samples were collected from the set of three mice at each time point. Plasma samples were separated by centrifugation of whole blood, while brain samples were homogenized in ice-cold phosphate buffer saline (pH 7.4). Total homogenate volume was three times the brain weight. Plasma and homogenates were stored below -70±10 °C until analysis. The extraction procedure for plasma/brain samples and the spiked plasma/brain calibration standards were identical. To a 25 µL volume of study sample (dilution factor applied to some samples) or spiked plasma/brain calibration standard, 100 µL of internal standard prepared in acetonitrile (Glipizide, 500 ng/mL) was added, except for blank where 100 µL of acetonitrile was added. […] Pharmacokinetic parameters were calculated using the non-compartmental analysis tool of Phoenix WinNonlin® (Version 7.0). Areas under the concentration time curve (AUC) values were calculated by linear trapezoidal rule.

NMDA = assay: SafetyScreen44 panel: NMDA; type: binding; conditions: 1 µM
Source text: (§1) See https://www.eurofinsdiscoveryservices.com.

GluN1KD mice = assay: Pre-pulse inhibition in GluN1KD mice; type: in vivo; conditions: ABM300 10 mg/kg, OLA 1 mg/kg i.p.
Method: Pre-Pulse Inhibition (PPI): PPI of the acoustic startle response was measured on day 3, via SR-LAB equipment and software from San Diego Instruments. Accelerometers were calibrated to 700±5 mV and output voltages were amplified and analyzed for voltage changes using SR Analysis (San Diego Instruments, San Diego, CA, USA), and exported as an excel file. Background white noise was maintained at 65dB. PPI was measured in a 30-min test with 80 randomized trials of: (1) 10 trials pulse alone (2) 10 trials pre-pulse alone (for each pre-pulse), (3) 10 trials pre-pulse plus pulse (for each pre-pulse), and (4) 10 trials no pulse. 5 pulse alone trials were performed before and after the 80 trials, totaling 90 trials per run. The pre-pulse (4dB, 8dB, or 16dB) was presented 100ms prior to the startle pulse […]. The inter-stimulus interval (ISI) was randomized between 5 and 20s. Experimental mice were placed in a cylindrical tube on a platform in a soundproof chamber. Mice were allowed to acclimatize in the chamber and to the background noise for 300s, followed by 5 consecutive pulse alone trials, then by 80 randomized trials (as described above) and then 5 consecutive pulse alone trials. Pre-pulse inhibition was measured as a decrease in the amplitude of startle response to a 100dB acoustic startle pulse, following each pre-pulse (4dB, 8dB and 16dB).

CB1R = CB1R (Homo sapiens, UniProt P21554); assay: cell-based
Sequence of CB1R (P21554 whole entry): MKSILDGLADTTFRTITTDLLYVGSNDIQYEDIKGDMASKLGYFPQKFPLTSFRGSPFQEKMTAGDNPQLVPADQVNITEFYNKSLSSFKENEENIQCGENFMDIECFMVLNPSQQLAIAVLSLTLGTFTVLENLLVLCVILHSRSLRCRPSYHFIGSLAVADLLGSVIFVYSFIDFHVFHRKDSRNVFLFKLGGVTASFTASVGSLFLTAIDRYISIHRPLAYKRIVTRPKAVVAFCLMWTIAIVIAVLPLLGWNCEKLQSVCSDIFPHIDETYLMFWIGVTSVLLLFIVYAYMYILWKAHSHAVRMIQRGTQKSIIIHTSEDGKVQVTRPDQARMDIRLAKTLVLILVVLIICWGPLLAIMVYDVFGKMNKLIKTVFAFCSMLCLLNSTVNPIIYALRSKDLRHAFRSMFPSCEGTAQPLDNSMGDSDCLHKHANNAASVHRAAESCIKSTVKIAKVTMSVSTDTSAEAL

5HT2B = biological target: T1, 5HT2B (Homo sapiens, UniProt P41595); assay: SafetyScreen44 panel: 5HT2B; type: binding; conditions: 1 µM
T1 construct: Eurofins Cerep
T1 sequence (P41595 whole entry): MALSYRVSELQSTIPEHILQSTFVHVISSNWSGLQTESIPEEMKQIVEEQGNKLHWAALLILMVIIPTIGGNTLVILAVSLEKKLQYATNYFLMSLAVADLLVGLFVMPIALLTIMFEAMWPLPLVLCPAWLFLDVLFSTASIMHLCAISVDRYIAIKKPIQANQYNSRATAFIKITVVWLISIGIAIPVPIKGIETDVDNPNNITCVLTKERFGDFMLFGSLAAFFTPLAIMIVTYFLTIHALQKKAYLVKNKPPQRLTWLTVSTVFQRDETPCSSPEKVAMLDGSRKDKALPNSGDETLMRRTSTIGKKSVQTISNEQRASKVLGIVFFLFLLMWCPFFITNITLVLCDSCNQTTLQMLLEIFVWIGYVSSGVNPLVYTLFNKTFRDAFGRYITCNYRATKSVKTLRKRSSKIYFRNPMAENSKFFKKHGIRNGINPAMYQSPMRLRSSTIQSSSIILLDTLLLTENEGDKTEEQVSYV
Source text: as §1

[1] = male, C57Bl/6, mouse, ip, 10 mg/kg

Sequence of Dopamine D1 (P21728 whole entry): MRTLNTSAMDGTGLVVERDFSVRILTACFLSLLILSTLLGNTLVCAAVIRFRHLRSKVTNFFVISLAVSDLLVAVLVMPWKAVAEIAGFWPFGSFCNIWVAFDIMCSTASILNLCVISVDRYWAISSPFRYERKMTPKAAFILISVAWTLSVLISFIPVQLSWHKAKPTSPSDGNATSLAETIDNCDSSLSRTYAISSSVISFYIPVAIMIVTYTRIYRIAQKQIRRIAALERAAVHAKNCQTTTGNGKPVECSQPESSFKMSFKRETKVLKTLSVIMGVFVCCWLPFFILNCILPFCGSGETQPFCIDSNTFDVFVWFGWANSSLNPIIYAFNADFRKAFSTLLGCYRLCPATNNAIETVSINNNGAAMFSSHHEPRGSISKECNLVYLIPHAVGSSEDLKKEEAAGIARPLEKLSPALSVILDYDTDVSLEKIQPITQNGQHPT

For `CCc1c(-c2nnc(Nc3ccccc3)o2)[nH]c2ccc(Cl)cc12` [ABM300, 5-(5-chloro-3-ethyl-1H-indol-2-yl)-N-phenyl-1,3,4-oxadiazol-2-amine], the “binding to Dopamine D1” value (Dopamine D1) was “did not display any significant binding”, the concentration at 30 min (in vivo; male, C57Bl/6, mouse, 10 mg/kg i.p., at 30 min, read-out: brain concentration) was 374 ± 39 ng/mL and the AUC(0-t) (in vivo; [1]) was 2050 ng·h/mL. The Cmax (in vivo; [1]) was 866 ng/mL and 412 ng/g, the Tmax (in vivo; male, C57Bl/6, mouse, ip, 10 mg/kg, Tmax) was 0.5 h and the AUClast (in vivo; mouse, ip, 10 mg/kg) was 1577.92 ng·h/g. The half-life (in vivo; mouse, ip, 10 mg/kg i.p., male C57Bl/6 mice) was ~2 h, the “binding to NMDA” value (NMDA) was “did not display any significant binding” and the acoustic startle response (GluN1KD mice) was “did not respond”. For the same compound, the “sensorimotor gating deficits (PPI; 4, 8, 16 dB)” value (GluN1KD mice) was “did not respond”, the IC50 (CB1R; read-out: IC50, reduction in ERK1/2 phosphorylation) was 47 nM and the IC50 (CB1R; read-out: pIC50, reduction in ERK1/2 phosphorylation (converted)) was 41.7 nM. For the same compound, the “binding to 5HT2B” value (5HT2B) was “did not display any significant binding”.
